The values that follow come from article PMC6273861, “Synthesis and Determination of Physicochemical Properties of New 3-(4-Arylpiperazin-1-yl)-2-hydroxypropyl 4-Alkoxyethoxybenzoates” (Molecules, 2016).

Data set [1] in a line: Determination of dissociation constants (pKa) by capillary zone electrophoresis. Type of data set: physicochemical. The settings on record: 25 °C, BGE pH 3.9 to 9.2, mean and standard deviation of four measurements, read-out: pKa (exp.). On the procedure:
The dissociation constants (pKa) of studied compounds were determined by means of CE. The measured values and values predicted by chemical software (ACD Percepta ver. 2012, Advanced Chemistry Development, Toronto, ON, Canada; MarvinSketch 6.0.6., ChemAxon Kft., Budapest, Hungary) are shown in Table 1. The correlation coefficients of the experimentally determined values were greater than 0.999 and standard deviation equal or less than 0.02 units (n = 4). The experimental values are in the range 6.35–6.92 and the highest values were recorded for the 1-(2-methoxyphenylpiperazine) derivatives 7b, 8b, 9b. The clinically used β-blockers are usually stronger bases, the values of studied compounds are lower due to the presence of piperazine moiety instead of secondary amine group.
The CE experiments were carried out with an Agilent 3D CE (Agilent Technologies) capillary electrophoresis system equipped with an autosampler, automatic injector, photodiode array detector, and an air cooling unit for the capillary. The instrument control and analysis were performed with 3D-CE ChemStation software (Agilent Technologies). Uncoated fused-silica capillary (Agilent Technologies) of 50 µm internal diameter, total length of 33.0 cm and effective length (to the detector) of 24.5 cm was used. The capillary cassette temperature was maintained at 25 °C with air cooling. Three milligrams of the sample were dissolved in 1 mL of 50% methanol and 10 times diluted with appropriate background electrolyte before analysis. Samples were injected hydrodynamically at 40 mbar pressure for 4.0 s. Running voltage was 15 kV of positive polarity. UV detection was performed at 254 nm. As a marker of electroosmotic flow, mesityl oxide was used. The effective mobilities were recorded for BGE pH values in the range of 3.9 to 9.2 (ionic strength equal to 10 mM), 4 runs at 10 different buffer pH values. The effective mobilities (μeff) were calculated according to Equation (3). (3) μeff=LtotLeff/U(1/tmig−1/tEOF) where tmig is the migration time of the analyte and tEOF is the migration time of a neutral marker compound that is of the same velocity as the electroosmotic flow (EOF). Leff is distance from the injection end of capillary to the detector and Ltot is the total length of the capillary over which the voltage U was applied. SigmaPlot for Windows version 11.0 (Systat Software GmbH, Erkrath, Germany) was employed for the nonlinear regression analysis of µeff/pH relationship having characteristic sigmoidal shape with inflection point indicating pKa value.
The pH measurements were taken with a combination glass electrode (HI 1332B, HANNA Instruments, Woonsocket, RI, USA), using a Thermo Orion 370 PerpHect® pH meter (ThermoFisher Scientific).

Data set [2] is described as follows: Lipophilicity index (log kw7.4, log kw) by RP-HPLC. Type of data set: physicochemical. To be noted: for log kw7.4: RP-HPLC, ZORBAX Extend-C18, pH 7.4, extrapolated to 100% water, mean and standard deviation; for log kw: neutral form, calculated from log kw7.4 and pKa by Equation (2). The method, then: The lipophilicity indexes log kw7.4 were measured by means of RP-HPLC method. The log kw values were then calculated according to Equation (2) given in Section 3.3. The correlation coefficients were greater than 0.999 with covariance equal or less than 0.03 units (n = 2). The log kw^7.4 values of synthetized compounds were measured by a Dionex Ultimate 3000 (Thermo Fisher Scientific) HPLC system controlled through the Chromeleon® Chromatography Data System (version 7.2). The separation was performed on ZORBAX Extend-C18 (3.5 µm, 3 × 150 mm) column (Agilent Technologies). Mobile phase consists of 0.02 M […] with addition of 0.15% of n-decylamine (pH = 7.4; constituent A) and methanol to which 0.25% of n-octanol was added (constituent B). The total flow rate was 0.4 mL/min, the injection volume was 1 μL, and the column temperature was maintained at 25 °C. The detection wavelength of 254 nm was chosen. One milligram of the sample was dissolved in 1 mL of methanol and diluted to the concentration 0.1 mg/mL with 50% methanol. Retention factors of the compound were measured under isocratic conditions in the range 20:80–50:50 (A:B; v/v), 5 values for each factor in duplicate. Linear regression analysis was performed and log kw7.4 values were calculated according to Equation (1). (1) logk=−Sϕ+logkw where log k represents a logarithm of individual isocratic factor, φ is the organic phase concentration, and S is a constant derived by linear regression analysis. The retention factor corresponding to the neutral form (log kw) was estimated from the apparent log kw7.4 by using Equation (2). (2) logkw=logkwapp+log(1+10^pKa−pH)

As for `CCCOCCOc1ccc(C(=O)OCC(O)CN2CCN(c3ccccc3OC)CC2)cc1.Cl.Cl` (stereo not drawn) [9b, 1-{2-Hydroxy-3-[(4-propoxyethoxybenzoyl)oxy]propyl}-4-(2-methoxyphenyl)piperazinediium dichloride], the melting point fell in the range of 143 to 146 °C. Besides, in data set [1], the pKa was 6.79 ± 0.02. In data set [2], the “log kw7.4” value was 4.11 ± 0.02 and the log kw was 4.20 ± 0.09.
`CCCOCCOc1ccc(C(=O)OCC(O)CN2CCN(c3ccccc3)CC2)cc1.Cl.Cl` (stereo not drawn) [9a, 1-{2-Hydroxy-3-[(4-propoxyethoxybenzoyl)oxy]propyl}-4-phenylpiperazinediium dichloride]: the melting point is 197 to 199 °C. In data set [1], the pKa worked out at 6.5 ± 0.02. In addition, in data set [2], the “log kw7.4” value is given as 4.29 ± 0.03 and the log kw is given as 4.34 ± 0.10.
`COc1ccccc1N1CCN(CC(O)COC(=O)c2ccc(OCCOC(C)C)cc2)CC1.Cl.Cl` (stereo not drawn) [8b, 1-{2-Hydroxy-3-[(4-isopropoxyethoxybenzoyl)oxy]propyl}-4-(2-methoxyphenyl)piperazinediium dichloride] showed a melting point of 154 to 156 °C. The pKa in data set [1] was 6.92 ± 0.01. In addition, in data set [2], the “log kw7.4” value is given as 4.03 ± 0.02 and the log kw is reported as 4.15 ± 0.07.
For `CCCOCCOc1ccc(C(=O)OCC(O)CN2CCN(c3ccc(OC)cc3)CC2)cc1.Cl.Cl` (stereo not drawn) [9c, 1-{2-Hydroxy-3-[(4-propoxyethoxybenzoyl)oxy]propyl}-4-(4-methoxyphenyl)piperazinediium dichloride], in that order: 173 to 175 °C, 6.39 ± 0.01, 3.99 ± 0.02 and 4.03 ± 0.09.
For `CC(C)OCCOc1ccc(C(=O)OCC(O)CN2CCN(c3ccccc3)CC2)cc1.Cl.Cl` (stereo not drawn) [8a, 1-{2-Hydroxy-3-[(4-isopropoxyethoxybenzoyl)oxy]propyl}-4-phenylpiperazinediium dichloride], in that order: 200 to 202 °C, 6.49 ± 0.01, 4.21 ± 0.01 and 4.25 ± 0.05.
The compound `C=CCOCCOc1ccc(C(=O)OCC(O)CN2CCN(c3ccc(OC)cc3)CC2)cc1.Cl.Cl` (stereo not drawn) [7c, 1-{3-[(4-Allyloxyethoxybenzoyl)oxy]-2-hydroxypropyl}-4-(4-methoxyphenyl)piperazinediium dichloride] came in with a melting point of 170 to 173 °C. For the same compound, the pKa in data set [1] was 6.49 ± 0.02. For the same compound, in data set [2], the “log kw7.4” value was 3.67 ± 0.02 and the log kw is 3.71 ± 0.08.
For `C=CCOCCOc1ccc(C(=O)OCC(O)CN2CCN(c3ccccc3)CC2)cc1.Cl.Cl` (stereo not drawn) [7a, 1-{3-[(4-Allyloxyethoxybenzoyl)oxy]-2-hydroxypropyl}-4-phenylpiperazinediium dichloride], in that order: 185 to 187 °C, 6.47 ± 0.02, 3.97 ± 0.03 and 4.01 ± 0.09.
For `COc1ccc(N2CCN(CC(O)COC(=O)c3ccc(OCCOC(C)C)cc3)CC2)cc1.Cl.Cl` (stereo not drawn) [8c, 1-{2-Hydroxy-3-[(4-isopropoxyethoxybenzoyl)oxy]propyl}-4-(4-methoxyphenyl)piperazinediium dichloride], in that order: 193 to 195 °C, 6.35 ± 0.02, 3.90 ± 0.02 and 3.93 ± 0.06.
`C=CCOCCOc1ccc(C(=O)OCC(O)CN2CCN(c3ccccc3OC)CC2)cc1.Cl.Cl` (stereo not drawn) [7b, 1-{3-[(4-Allyloxyethoxybenzoyl)oxy]-2-hydroxypropyl}-4-(2-methoxyphenyl)piperazinediium dichloride] gave a melting point of 178 to 180 °C. Besides, in data set [1], the pKa was 6.88 ± 0.02. Further, in data set [2], the “log kw7.4” value was 3.78 ± 0.02 and the log kw is on record as 3.89 ± 0.08.

As usually defined, the pKa is the pH at which an ionisable group is half protonated. What is called melting point is the temperature of the solid-liquid transition.
